The values that follow come from article PMC6757289, “Design and Characterization of SGK3-PROTAC1, an Isoform Specific SGK3 Kinase PROTAC Degrader” (ACS Chemical Biology, 2019).

Holding throughout (assay type): cell-based
One test has as its target T1, SGK1 (Homo sapiens, UniProt O00141).
T1 sequence (O00141 1-431): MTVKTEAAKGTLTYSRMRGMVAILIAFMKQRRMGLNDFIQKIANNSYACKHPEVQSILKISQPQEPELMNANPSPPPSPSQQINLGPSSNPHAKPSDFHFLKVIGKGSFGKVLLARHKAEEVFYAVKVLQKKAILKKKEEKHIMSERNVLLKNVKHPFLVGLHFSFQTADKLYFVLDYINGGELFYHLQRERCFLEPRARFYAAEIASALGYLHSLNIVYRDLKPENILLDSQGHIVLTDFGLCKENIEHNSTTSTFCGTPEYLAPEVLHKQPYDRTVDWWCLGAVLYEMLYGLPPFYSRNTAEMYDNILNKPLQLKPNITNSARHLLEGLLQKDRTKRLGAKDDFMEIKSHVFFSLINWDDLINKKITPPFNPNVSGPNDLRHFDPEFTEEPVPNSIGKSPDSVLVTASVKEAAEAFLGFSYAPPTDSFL
Nature of the test: SGK1 protein level in HEK293 cells, immunoblot. The settings on record: HEK293, 48 h. On the procedure: (§1) A medium length linker composed of three PEG units was used in the first instance (Figure 1B and C). […] After 48 h of PROTAC treatment, cell lysates were analyzed by immunoblot analysis, and protein expression under each condition was quantified relative to the DMSO-only control. […] DAT1 reduced SGK3 expression by 60% at 1 μM and 75% at 10 μM after 48 h (Figure 1D). […] As expected, inhibition of CUL2 neddylation by means of the inhibitor MLN4924 (3 μM) or proteasome inhibition (MG132, 50 μM) blocked DAT1-induced degradation of SGK3 (Figure S1C).
(§2) All cell treatments were carried out as described in figure legends, to a final DMSO concentration of 0.1% (v/v). Lysates were quantified. Immunoblotting was performed using standard procedures, described in brief below. Lysate concentration was quantified by Bradford Assay, and 10 μg of lysate was loaded in the LDS sample buffer for SDS-PAGE electrophoresis on Novex 4–12% Bis–Tris gels. Proteins were electrophoretically transferred onto nitrocellulose membranes (Amersham Protran 0.45 μm NC; GE Healthcare) at 80 V for 80 min on ice in transfer buffer. […] The signal was produced with near-infrared secondary antibodies and detected using a Licor Biosciences Odyssey System, and the signal was quantified in Image Studio Lite.
For orientation: In western blotting, separated proteins are transferred to a membrane and probed.

The next test has as its target T2, SGK2 (Homo sapiens, UniProt Q9HBY8).
T2 construct: reduced endogenous SGK isoform or S6K1 expression when administered to HEK293 cells for 48 h; endogenous in cells; host or cells: HEK293
Nature of the test: SGK2 protein level in HEK293 cells, immunoblot. The following applies: HEK293, 48 h. On the procedure:
as §1, §2

Test [1] addresses T3, SGK3 (Homo sapiens, UniProt Q96BR1).
T3 sequence (Q96BR1 1-496): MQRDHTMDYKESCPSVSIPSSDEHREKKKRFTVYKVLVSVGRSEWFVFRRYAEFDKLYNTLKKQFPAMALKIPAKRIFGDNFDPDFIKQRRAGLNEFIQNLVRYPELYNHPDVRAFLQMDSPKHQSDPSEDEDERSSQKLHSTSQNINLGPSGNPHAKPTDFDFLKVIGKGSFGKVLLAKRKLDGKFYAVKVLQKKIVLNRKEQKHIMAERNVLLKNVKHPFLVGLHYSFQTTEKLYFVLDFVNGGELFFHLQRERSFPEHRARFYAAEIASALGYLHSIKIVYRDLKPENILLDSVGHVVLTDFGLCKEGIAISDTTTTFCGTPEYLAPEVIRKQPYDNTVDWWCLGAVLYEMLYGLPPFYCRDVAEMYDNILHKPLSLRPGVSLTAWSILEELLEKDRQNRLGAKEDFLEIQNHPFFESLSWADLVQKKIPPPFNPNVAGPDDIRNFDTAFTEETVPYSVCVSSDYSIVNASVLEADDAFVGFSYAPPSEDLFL
Nature of the test: SGK3 degradation in CAMA-1 cells, immunoblot. The settings on record: for SGK3 expression: CAMA-1, 5 days 1 μM GDC0941 or AZD5363, 0.3 μM for 5 days or 8 h. On the procedure: (§3) Figure 3 Characterization of cellular activities of SGK3-PROTAC1 and cisSGK3-PROTAC1. (A) HEK293 cells were first treated for 8 h with 0.03–3 μM SGK3-PROTAC1 and cisSGK3-PROTAC1. One hour before lysis, cells were treated with 3 μM AZD5363. Lysates were subjected to immunoblot analysis with the indicated antibodies. […] Lysates were subjected to immunoblot analysis with the indicated antibodies. (C) HEK293 cells were treated for up to 48 h with SGK3-PROTAC1 (0.3 μM), and lysates were analyzed by immunoblot analysis using the indicated antibodies. (D) HEK293 cells were treated for 24 h with SGK3-PROTAC1. Cells were washed three times with DMEM to wash out the compound, and recovery of SGK3 expression protein was analyzed by immunoblot analysis. (E–G) As in A except that CAMA-1 (E), ZR-75-1 (F), and JIMT-1 (G) cells were employed rather than HEK293 cells.
(§4) Figure 5 SGK3-PROTAC1-mediated degradation of SGK3 inhibits Akt-independent activation of mTORC1 in cancer cell lines treated with Akt or PI3K inhibitors. CAMA-1 (A, C) or ZR-75-1 (B, D) were treated for 5 days with 1 μM GDC0941 (A, B) or 1 μM AZD5363 (C, D). Cells were treated with the compounds indicated for either 5 days or 8 h before lysis; cells were treated with the compounds indicated. Cell lysates were subject to immunoblot analysis with the indicated antibodies.
(§5) All cell treatments were carried out as described in figure legends, to a final DMSO concentration of 0.1% (v/v). Lysates were quantified. Immunoblotting was performed using standard procedures, described in brief below. Lysate concentration was quantified by Bradford Assay, and 10 μg of lysate was loaded in the LDS sample buffer for SDS-PAGE electrophoresis on Novex 4–12% Bis–Tris gels. Proteins were electrophoretically transferred onto nitrocellulose membranes (Amersham Protran 0.45 μm NC; GE Healthcare) at 80 V for 80 min on ice in transfer buffer. Transferred membranes were blocked with 5% (w/v) nonfat dry milk dissolved in TBS-T [20 mM Tris/HCl, pH 7.5, 150 mM NaCl, and 0.1% (v/v) Tween 20] at RT for 30 min, before incubation with the primary antibody overnight at 4 °C. The signal was produced with near-infrared secondary antibodies and detected using a Licor Biosciences Odyssey System, and the signal was quantified in Image Studio Lite.

Test [2] has as its target T3, SGK3. Description: SGK3 degradation in ZR-75-1 cells, immunoblot. The following applies: for SGK3 expression: ZR-75-1, 5 days 1 μM GDC0941 or AZD5363, 0.3 μM for 5 days or 8 h. On the procedure: as §3, §4, §5
The subject of test [3] is mTORC1-mediated phosphorylation of S6K1 at Thr389. Description: mTORC1 signaling in ZR-75-1 cells treated with PI3K or Akt inhibitor, immunoblot. The following applies: ZR-75-1, 5 days 1 μM GDC0941 or AZD5363; 0.3 μM. On the procedure:
We therefore aimed to investigate the effect that degradation of SGK3 would have on this resistance pathway and whether SGK3-PROTAC1 treatment could reverse inhibitor resistance. To investigate the effect of SGK3-PROTAC1 under these conditions, we treated CAMA-1 (Figure 5A,C) or ZR-75-1 (Figure 5B,D) for 5 days with either a class 1A PI3K inhibitor (GDC0941 1 μM;[38]Figure 5A,B) or an Akt inhibitor (AZD5363, 1 μM;[39]Figure 5C,D). These cells were treated with SGK3-PROTAC1 or cisSGK3-PROTAC1 (0.3 μM) for either 5 days in combination with the inhibitors or 8 h before lysis.
Figure 5 SGK3-PROTAC1-mediated degradation of SGK3 inhibits Akt-independent activation of mTORC1 in cancer cell lines treated with Akt or PI3K inhibitors. CAMA-1 (A, C) or ZR-75-1 (B, D) were treated for 5 days with 1 μM GDC0941 (A, B) or 1 μM AZD5363 (C, D). […]
All cell treatments were carried out as described in figure legends, to a final DMSO concentration of 0.1% (v/v). Lysates were quantified. […] Lysate concentration was quantified by Bradford Assay, and 10 μg of lysate was loaded in the LDS sample buffer for SDS-PAGE electrophoresis on Novex 4–12% Bis–Tris gels. […] The signal was produced with near-infrared secondary antibodies and detected using a Licor Biosciences Odyssey System, and the signal was quantified in Image Studio Lite.

T2 sequence (Q9HBY8 whole entry, canonical isoform): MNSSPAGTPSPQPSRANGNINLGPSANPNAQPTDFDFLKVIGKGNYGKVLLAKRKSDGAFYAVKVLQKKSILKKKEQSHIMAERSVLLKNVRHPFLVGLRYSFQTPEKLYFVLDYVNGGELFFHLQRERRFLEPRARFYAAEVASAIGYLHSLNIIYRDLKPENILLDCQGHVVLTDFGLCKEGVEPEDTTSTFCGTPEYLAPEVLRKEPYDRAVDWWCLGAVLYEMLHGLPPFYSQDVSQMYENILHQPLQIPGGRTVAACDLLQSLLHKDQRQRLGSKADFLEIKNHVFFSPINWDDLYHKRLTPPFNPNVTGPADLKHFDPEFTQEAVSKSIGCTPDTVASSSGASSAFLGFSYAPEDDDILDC

For `Cc1ccc(F)c(S(=O)(=O)Nc2ccc(-c3nc(OC[C@H]4CN(CCOCCOCCOCC(=O)N[C@H](C(=O)N5C[C@H](O)C[C@H]5C(=O)NCc5ccc(-c6scnc6C)cc5)C(C)(C)C)CCO4)c4cn[nH]c4n3)cc2)c1` [DAT1], at SGK1 (up to 10 μM), the SGK1 level result is “not significantly impacted”. Also, the SGK2 level entry at SGK2 (up to 10 μM) is “not significantly impacted”.

`Cc1ccc(F)c(S(=O)(=O)Nc2ccc(-c3nc(OC[C@H]4CN(CCCCCCOCCOCCOCC(=O)N[C@H](C(=O)N5C[C@H](O)C[C@H]5C(=O)NCc5ccc(-c6scnc6C)cc5)C(C)(C)C)CCO4)c4cn[nH]c4n3)cc2)c1` [SGK3-PROTAC1]: the SGK1 level result at SGK1 (0.1 μM) was “without effecting”. For the same compound, the SGK2 level entry on SGK2 (0.1 μM) is recorded as “without effecting”. Moreover, the “concentration inducing degradation of SGK3” value on SGK3 [1] (CAMA-1, 8 h) is greater than 0.1 µM; at SGK3 [2] (ZR-75-1, 8 h) it was greater than 0.1 µM. For the same compound, the SGK3 expression result on SGK3 [1] and on SGK3 [2] was “substantially reduced” in each case. Moreover, the “phosphorylation of S6K1 at Thr389” value in test [3] is “suppressed”.

With `Cc1ccc(F)c(S(=O)(=O)Nc2ccc(-c3nc(OC[C@H]4CN(CCCCCCOCCOCCOCC(=O)N[C@H](C(=O)N5C[C@@H](O)C[C@H]5C(=O)NCc5ccc(-c6scnc6C)cc5)C(C)(C)C)CCO4)c4cn[nH]c4n3)cc2)c1` [cisSGK3-PROTAC1], the “degradation of SGK3” value on SGK3 [1] (CAMA-1, 8 h, 0.03–3 μM) is listed as “no impact”; on SGK3 [2] (ZR-75-1, 8 h, 0.03–3 μM), “no impact”. Moreover, the SGK3 expression result on SGK3 [1] and at SGK3 [2] was “no significant effect” each time. Moreover, the “phosphorylation of S6K1 at Thr389” value in test [3] is listed as “no significant effect”.
